Legend:
RXRα = target: T1, RXRα (Homo sapiens, UniProt P19793); assay: holoreceptor transactivation assay, RXRα; format: cell-based; details: efficacy as a percentage compared to the standard compound
T1 construct: expressed in transfected cells
T1 sequence (P19793 1-462): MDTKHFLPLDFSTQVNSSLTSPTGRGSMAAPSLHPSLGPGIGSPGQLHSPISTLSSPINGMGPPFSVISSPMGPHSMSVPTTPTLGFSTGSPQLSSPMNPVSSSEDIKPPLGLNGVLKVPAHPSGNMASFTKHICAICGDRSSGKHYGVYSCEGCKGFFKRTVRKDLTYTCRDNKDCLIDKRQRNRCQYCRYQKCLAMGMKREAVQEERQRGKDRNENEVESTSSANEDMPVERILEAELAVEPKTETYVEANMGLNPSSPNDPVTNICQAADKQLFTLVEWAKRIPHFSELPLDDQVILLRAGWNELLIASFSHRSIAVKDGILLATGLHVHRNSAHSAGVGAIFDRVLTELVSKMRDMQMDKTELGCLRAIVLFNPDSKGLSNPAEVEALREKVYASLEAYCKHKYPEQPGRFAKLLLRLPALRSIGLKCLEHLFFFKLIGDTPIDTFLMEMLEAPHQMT
Description: (§1) Particularly, the transactivation data pertaining to activation of the RAR receptors were obtained in the chimeric assay, and the transactivation data pertaining to the activation of RXR receptors were obtained in the holoreceptor assay.

[1] = system: female diabetic db/db mice; assay: serum glucose, triglyceride and thyroxine levels in db/db mice; format: in vivo
Procedure: An assay described below tests the effect of compounds of the invention on serum glucose, tryglyceride and thyroxine levels in female 9-10 weeks old db/db mice.
Blood samples (70 μl) were taken by orbital bleeding at 11:00 AM on day 0 (pre-treatment), day 3, and day 6. On day 7, a blood sample (700 μl) was taken at 11:00 AM and the animals were sacrificed. Glucose, triglyceride and thyroxine (T4) levels were determined on a Boehringer Manheim Hatachi Clinical Chemistry Analyzer using standard protocols provided by the manufacturer and reagents that were supplied in commercially available kits (glucose and T4; Boehringer Manheim; triglycerides: Roche Diagnostics). Seven animals were treated in each group.

RXRβ = target: T2, RXRβ (Homo sapiens, UniProt P28702); assay: holoreceptor transactivation assay, RXRβ; format: cell-based
T2 construct: expressed in transfected cells
T2 sequence (P28702 1-533): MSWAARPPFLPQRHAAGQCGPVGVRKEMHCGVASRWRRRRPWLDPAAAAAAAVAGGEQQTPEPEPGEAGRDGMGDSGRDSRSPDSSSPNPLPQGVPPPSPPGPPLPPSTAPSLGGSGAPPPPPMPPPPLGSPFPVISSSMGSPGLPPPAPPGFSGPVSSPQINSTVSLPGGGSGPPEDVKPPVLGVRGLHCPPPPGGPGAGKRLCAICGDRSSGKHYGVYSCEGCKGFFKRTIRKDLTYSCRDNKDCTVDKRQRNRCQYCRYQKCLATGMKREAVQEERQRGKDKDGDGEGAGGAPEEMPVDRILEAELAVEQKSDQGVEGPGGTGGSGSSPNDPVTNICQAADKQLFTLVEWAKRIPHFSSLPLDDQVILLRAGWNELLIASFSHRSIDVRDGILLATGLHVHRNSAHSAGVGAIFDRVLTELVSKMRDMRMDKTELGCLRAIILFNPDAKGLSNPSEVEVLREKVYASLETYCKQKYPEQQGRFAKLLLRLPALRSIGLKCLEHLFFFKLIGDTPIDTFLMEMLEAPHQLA
Description: as §1

[2] = female db/db mice, day 0 (pre-treatment), groups: standard compound 5 mg/kg, Compound 27 50 mg/kg
[3] = female db/db mice, oral gavage daily, standard compound 5 mg/kg, Compound 27 50 mg/kg

In the case of `CC(/C=C/[C@@H]1C[C@]1(C)c1ccc2c(c1)C(C)(C)CCC2(C)C)=C\C(=O)O` [Standard compound, (2E,4E,1'S,2'S)-3-methyl-5-[2′-methyl-2′-(5,5,8,8-tetramethyl-5,6,7,8-tetrahydro-naphthalen-2-yl)-cyclopropyl]-penta-2,4-dienoic acid], the “RXR Trans. efficacy α” value (RXRα) is reported as 100%, the “effect on serum thyroxine levels” value ([1]; diabetic mammals (db/db mice), in words) is reported as “undesirable side effect of reducing serum thyroxine levels” and the “Glucose Day 0” value [1, 2] is reported as 356 mg/dL. For the same molecule, the “Triglycerides Day 0” value [1, 2] was 152 mg/dL, the “T4 Day 7” value ([1]; female db/db mice, oral gavage daily for seven days, standard compound 5 mg/kg, Compound 27 50 mg/kg) was 2.6 ± 0.6 µg/dL and the “Glucose Day 3, 3 h” value [1, 3] was 249 mg/dL. For the same molecule, the “Glucose Day 6, 3 h” value [1, 3] was 239 mg/dL, the “Triglycerides Day 3, 3 h” value [1, 3] was 137 mg/dL and the “RXR Trans. efficacy β” value (RXRβ; efficacy as a percentage compared to the standard compound) was 100%. For the same molecule, the “efficacy in activating RXRβ compared with RXRα and RXRγ” value (RXRβ; transactivation, comparison of subtypes) was “approximately equally efficacious in activating the RXRα, RXRβ and RXRγ subtypes”.

— patent US6759547B1, “5,6,7,8-tetrahydronaphthalen-2-yl 2,6-difluoroheptatrienoic acid derivatives having serum glucose reducing activity” (Allergan, Inc., priority 2003, dated 2004)
